# Assay: In vitro release study of EVE-PLGA microsphere (sample-and-separate method)
# Format: physicochemical
# Details: during in vitro release study, release medium pH 7.4, 37° C.
# Procedure: The in vitro release study was carried out by a sample-and-separate method. Briefly, 20 mg of microsphere sample (n=3) was taken in a 100 mL flask and dispersed in 50 mL of release medium (0.5% Tween 20 and 0.1% sodium azide in phosphate buffered saline (PBS) at pH 7.4). The flasks were placed in an orbital agitating incubator at 37° C. and shaken at 100 rpm. At certain time points (E10PA53 at 1, 3, 7, 14, 21, 28, 35, 42, 49, 56 days and E10PE77 at 1, 3, 7, 14, 21, 28, 35, 42, 49, 56, 63, 70, 77, 84, 91 days), all medium was collected and filtered on filter paper. The filtered pellet was freeze-dried for 24 h and dissolved in acetonitrile. The content of the unreleased EVE was then analyzed by HPLC as described above. Since EVE was known to be degradable in aqueous solution as a free form in a time-dependent manner, the EVE content was analyzed in the microsphere residue.
# The microspheres were also prepared using a membrane with a pore size of 50 μm, which produced microspheres having a diameter size larger than 75 μm. To analyze the release behavior of EVE from the microspheres, an in vitro release study was performed by a sample-and-separate method at physiological conditions. […] The content of EVE was determined in the remaining microsphere after collecting whole samples at certain time points to avoid degradation-related loss of EVE in an aqueous environment.
structure (smiles),measurement,value
"CO[C@H]1C[C@@H]2CC[C@@H](C)[C@@](O)(O2)C(=O)C(=O)N2CCCC[C@H]2C(=O)O[C@H]([C@H](C)C[C@@H]2CC[C@@H](OCCO)[C@H](OC)C2)CC(=O)[C@H](C)/C=C(\C)[C@@H](O)[C@@H](OC)C(=O)[C@H](C)C[C@H](C)/C=C/C=C/C=C/1C [EVE, everolimus]",stability of EVE in the microsphere,no change in the stability
